Results on seven compounds are retold here after patent publication US10398706B2, “Heteroaryldiazepine derivatives as RSV inhibitors” (Enanta Pharmaceuticals, Inc., priority 2017, dated 2019).

pEC50: −log10 of the molar value. Some results are limits rather than exact numbers.

One assay deals with Human RSV-A (“Long” strain). As to the kind of experiment: RSV-A in vitro cytoprotection assay in HEp-2 cells (ATPlite readout). The class given is cell-based, Human respiratory syncytial virus. To be noted: HEp-2 cells, 4-day incubation, ATPlite cell viability; read-out: Human RSV-A (“Long” strain) EC50. From the text: RSV is a single stranded negative sense RNA virus that causes respiratory tract infections which can be dangerous to infants, the elderly, and immunosuppressed individuals. Currently there is no vaccine, and therapeutic options are both costly and of limited effectiveness. These approved treatments are Ribavirin, and Palivizumab/Synagis (a monoclonal antibody). RSV has two genotypes, A and B, which differ primarily in the structure of the virus' surface “G” attachment protein. Our current primary screen focusses on RSV-A and uses an in vitro cytoprotection assay where compounds are added in 2-fold dilutions to cells which are then subjected to fully replicative viral particles. Cell viability is measured several days later along with separate measurements of compound cytotoxicity. This report focuses on the results of our most recent screening of compounds.
HEp-2 cells, (originally derived from tumors grown in irradiated-cortisonised weanling rats that had been injected with epidermoid carcinoma tissue from a person's larynx, but later found to be indistinguishable from HeLa cells by PCR DNA analysis), were used for the culturing of genotype A, “Long” strain RSV. Flasks were inoculated with RSV and viral stocks were collected once cytopathic effect (CPE) was greater than 90%. Viral stocks in 25% sucrose media were snap frozen using liquid nitrogen to increase viral stability. Viral stock titers were quantified by tissue culture infectious dose 50% (TCID50) using 8,000 cells per well and 3-fold viral dilutions across a 96-well plate, cultured for 4 days.
Following extensive parameter testing, the final assay is run as follows: HEp-2 cells are seeded into the inner 60 wells of a 96-well plate at 8,000 cells per well in a volume of 50 μL using Growth Media (DMEM without phenol red, 1% L-Glut, 1% Penn/Strep, 1% nonessential amino acids, 10% FBS). 2-fold serial dilutions of control and test compounds are added to the wells in duplicate in a total volume of 25 μL. Viral stock is then added to the wells in a volume of 25 μL, bringing the total volume of each well to 100 μL. Each 96-well plate has a control column of 6 wells with cells and virus but no compound (negative control, max CPE), a column with cells but no compound or virus (positive control, minimum CPE), and a column with no cells or virus or compound (background plate/reagent control). The control wells with cells but no virus are given an additional 25 uL of growth media containing an equal quantity of sucrose as those wells receiving the viral stock in order to keep consistent in media and volume conditions. The outer wells of the plate are filled with 125 μL of growth media to act as a thermal and evaporative moat around the test wells. Following a 4-day incubation period, the plates are read using ATPlite (50 uL added per well), which quantifies the amount of ATP (a measure of cell health) present in each well. Assay plates are read using the Envision luminometer. […] EC50 ranges are as follows: A<0.4 μM; B 0.4-0.8 μM; C>0.8 μM.
The pEC50 is the EC50 on a negative log10 scale, so that one unit is a factor of ten. For the compound `Cc1cc2c(s1)NC(=O)[C@@H](Nc1nnc(-c3ncc(C(F)(F)F)cc3N3CCOCC3)o1)N=C2c1ccccc1` [Example 6], the negative-log EC50 (pEC50) was greater than 6.40.

For the compound `Cc1sc2c(c1C)C(c1ccccc1)=N[C@H](Nc1nnc(-c3ncc(C(F)(F)F)cc3N3CCOCC3)o1)C(=O)N2` [Example 8], the pEC50 was 6.10 to 6.40.

The assay is the same for the next values; noted with them: human respiratory syncytial virus, HEp-2, 96 h, read-out: Human RSV-A (“Long” strain) EC50.
As for `O=C1Nc2cccnc2C(c2ccccc2)=NC1Nc1nnc(-c2ccccc2)o1` (stereo not shown) [Example 1], the negative logarithm of the EC50 (pEC50) was less than 6.10.

Take `O=C1Nc2ccsc2C(c2ccccc2)=NC1Nc1nnc(-c2ncc(C(F)(F)F)cc2N2CCOCC2)o1` (stereo not shown) [Example 4]: the pEC50 was 6.10 to 6.40.

Turning to `O=C1Nc2cnccc2C(c2ccccc2)=NC1Nc1nnc(-c2ccc(F)cc2)o1` (stereo not shown) [Example 3], the negative-log EC50 (pEC50) is less than 6.10.

With `O=C1Nc2ncccc2C(c2ccccc2)=NC1Nc1nnc(-c2ccc(F)cc2)o1` (stereo not shown) [Example 2], the pEC50 was less than 6.10.

In the case of `O=C1Nc2sccc2C(c2ccccc2)=NC1Nc1nnc(-c2ncc(C(F)(F)F)cc2N2CCOCC2)o1` (stereo not shown) [Example 5], the pEC50 was 6.10 to 6.40.
